According to PubChem BioAssay AID248 (DTP/NCI, 2004):
“And” between values parts separate entries of the source, which are not always exact repeats. Identical values can stand only once. Inconclusive results and toxic doses are left out. No stated cut-off is given here; in the data, active means T/C of 150% or more; inactive means T/C below 125%.

System: L1210 leukemia ip in BDF1 mice, survival T/C
Assay: NCI In Vivo Anticancer Drug Screen. Data for tumor model L1210 Leukemia (intraperitoneal) in B6D2F1 (BDF1) mice
Conditions: endpoint: mean survival time, higher = longer survival
Outline: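 Ratio derived from survival: compound-dosed mice over vehicle-dosed mice, all bearing a transplantable tumor.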

[1] = dose: 100.0 mg/kg/injection, schedule: Q04DX003 (ip), vehicle: saline
[2] = dose: 200.0 mg/kg/injection, schedule: Q04DX003 (ip), vehicle: saline
[3] = dose: 400.0 mg/kg/injection, schedule: Q04DX003 (ip), vehicle: saline
[4] = dose: 100.0 mg/kg/injection, schedule: Q01DX001 (ip), vehicle: saline with Tween-80
[5] = dose: 200.0 mg/kg/injection, schedule: Q01DX001 (ip), vehicle: saline with Tween-80
[6] = dose: 50.0 mg/kg/injection, schedule: Q04DX003 (ip), vehicle: Klucel (hydroxypropylcellulose) (HPC)
[7] = dose: 100.0 mg/kg/injection, schedule: Q01DX001 (ip), vehicle: saline
[8] = dose: 100.0 mg/kg/injection, schedule: Q01DX009 (ip), vehicle: Klucel (hydroxypropylcellulose) (HPC)
[9] = dose: 100.0 mg/kg/injection, schedule: Q04DX003 (ip), vehicle: Klucel (hydroxypropylcellulose) (HPC)
[10] = dose: 200.0 mg/kg/injection, schedule: Q01DX001 (ip), vehicle: saline
[11] = dose: 200.0 mg/kg/injection, schedule: Q01DX009 (ip), vehicle: Klucel (hydroxypropylcellulose) (HPC)
[12] = dose: 200.0 mg/kg/injection, schedule: Q04DX003 (ip), vehicle: Klucel (hydroxypropylcellulose) (HPC)
[13] = dose: 100.0 mg/kg/injection, schedule: Q01DX009 (ip), vehicle: saline with Tween-80
[14] = dose: 200.0 mg/kg/injection, schedule: Q01DX009 (ip), vehicle: saline with Tween-80
[15] = dose: 100.0 mg/kg/injection, schedule: Q01DX001 (ip), vehicle: Klucel (hydroxypropylcellulose) (HPC)
[16] = dose: 100.0 mg/kg/injection, schedule: Q04DX002 (ip), vehicle: Klucel (hydroxypropylcellulose) (HPC)
[17] = dose: 200.0 mg/kg/injection, schedule: Q01DX001 (ip), vehicle: Klucel (hydroxypropylcellulose) (HPC)
[18] = dose: 200.0 mg/kg/injection, schedule: Q04DX002 (ip), vehicle: Klucel (hydroxypropylcellulose) (HPC)
[19] = dose: 400.0 mg/kg/injection, schedule: Q01DX001 (ip), vehicle: Klucel (hydroxypropylcellulose) (HPC)
[20] = dose: 400.0 mg/kg/injection, schedule: Q04DX002 (ip), vehicle: Klucel (hydroxypropylcellulose) (HPC)
[21] = dose: 400.0 mg/kg/injection, schedule: Q04DX003 (ip), vehicle: Klucel (hydroxypropylcellulose) (HPC)
[22] = dose: 400.0 mg/kg/injection, schedule: Q01DX009 (ip), vehicle: Klucel (hydroxypropylcellulose) (HPC)
[23] = dose: 100.0 mg/kg/injection, schedule: Q04DX002 (ip), vehicle: saline
[24] = dose: 200.0 mg/kg/injection, schedule: Q04DX002 (ip), vehicle: saline

Measured: T/C

COc1ccc(NC(=O)c2ccc(C(=O)Nc3ccc(OC)cc3)cc2)cc1
inactive: [1] 92 % of control | [2] 97 % of control | [3] 92 % of control

COC(OC)/C(C)=N/NC(N)=O
inactive: dose: 100.0 mg/kg/injection, schedule: Q01DX001 (ip), vehicle: carboxymethylcellulose (CMC) 88 % of control | dose: 200.0 mg/kg/injection, schedule: Q01DX001 (ip), vehicle: carboxymethylcellulose (CMC) 116 % of control | dose: 400.0 mg/kg/injection, schedule: Q01DX001 (ip), vehicle: carboxymethylcellulose (CMC) 108 % of control

Nc1ncnc(N)c1NC(=O)/C=C/c1ccccc1
inactive: [4] 116 % of control | [5] 101 % of control

COC(OC)c1cc(=O)[nH]c(N)n1
inactive: dose: 50.0 mg/kg/injection, schedule: Q01DX001 (ip), vehicle: saline 103 % of control | dose: 50.0 mg/kg/injection, schedule: Q01DX009 (ip), vehicle: Klucel (hydroxypropylcellulose) (HPC) 109 % of control | [6] 97 % of control | [7] 101 % of control | [8] 100 % of control | [9] 93 % of control | [10] 108 % of control | [11] 104 % of control | [12] 96 % of control

CC(C)=CCc1c2c(c3occ(-c4ccc(O)c(O)c4)c(=O)c3c1O)C=CC(C)(C)O2
inactive: [6] 93 % of control | [9] 100 % of control | [12] 104 % of control

O=C(O)CCCc1ccc([N+](=O)[O-])cc1Cl
inactive: [13] 103 % of control | [14] 105 % of control

O=C(Nc1ncccc1[N+](=O)[O-])C(Cl)(Cl)Cl
inactive: [15] 101 % of control | [8] 115 % of control | [16] 100 % of control and 88 % of control | [9] 95 % of control | [17] 100 % of control | [11] 108 % of control | [18] 103 % of control and 91 % of control | [12] 106 % of control | [19] 101 % of control | [20] 100 % of control and 103 % of control | [21] 95 % of control

CNC(=O)CCC(NS(=O)(=O)c1ccc(C)cc1)C(=O)O (stereo not drawn)
inactive: [4] 100 % of control | [5] 95 % of control | dose: 400.0 mg/kg/injection, schedule: Q01DX001 (ip), vehicle: saline with Tween-80 97 % of control

S=C1NC2CCCc3ccccc3C2O1 (stereo not drawn)
inactive: [9] 111 % of control | [12] 113 % of control | [21] 107 % of control

O=C(CN1CCCCC1)Nc1cccc(C(F)(F)F)c1
inactive: [8] 99 % of control | [9] 97 % of control | [11] 100 % of control | [12] 98 % of control | [22] 100 % of control | [21] 93 % of control

C=CCNc1ccnc(SC)n1
inactive: dose: 100.0 mg/kg/injection, schedule: Q01DX001 (ip), vehicle: gum acacia 94 % of control | dose: 200.0 mg/kg/injection, schedule: Q01DX001 (ip), vehicle: gum acacia 103 % of control

CC(O)COCc1ccccc1 (stereo not drawn)
inactive: dose: 100.0 mg/kg/injection, schedule: Q01DX009 (ip), vehicle: saline 103 % of control | [1] 94 % of control | dose: 200.0 mg/kg/injection, schedule: Q01DX009 (ip), vehicle: saline 94 % of control | [2] 94 % of control | dose: 400.0 mg/kg/injection, schedule: Q01DX009 (ip), vehicle: saline 97 % of control | [3] 90 % of control

CCN(CC(=O)O)CC(=O)O
inactive: [7] 93 % of control | [10] 112 % of control | dose: 400.0 mg/kg/injection, schedule: Q01DX001 (ip), vehicle: saline 96 % of control

[NH-]C(CC(N)=O)C(=O)O.[NH-]C(CC(N)=O)C(=O)O.[Pd+2] (stereo not drawn)
inactive: dose: 50.0 mg/kg/injection, schedule: Q01DX009 (ip), vehicle: saline with Tween-80 93 % of control | [13] 101 % of control | dose: 100.0 mg/kg/injection, schedule: Q04DX002 (ip), vehicle: saline with Tween-80 93 % of control | [14] 108 % of control | dose: 200.0 mg/kg/injection, schedule: Q04DX002 (ip), vehicle: saline with Tween-80 97 % of control

Cc1cc(NC(=O)Nc2cc([N+](=O)[O-])ccc2Cl)no1
inactive: [15] 89 % of control | [8] 96 % of control and 98 % of control | [16] 104 % of control and 91 % of control | [9] 96 % of control | [11] 106 % of control and 90 % of control | [18] 95 % of control and 98 % of control | [12] 97 % of control | [22] 98 % of control | [20] 95 % of control and 106 % of control | [21] 97 % of control

COc1cc(/C=N/N2CCN(/N=C/c3cc(OC)c(OC)c(OC)c3)CC2)cc(OC)c1OC
inactive: [9] 103 % of control | [12] 101 % of control | [21] 103 % of control

CC(=O)C(Sc1ccccc1[N+](=O)[O-])C(C)=O.[Co]
inactive: dose: 50.0 mg/kg/injection, schedule: Q01DX001 (ip), vehicle: other 92 % of control | dose: 100.0 mg/kg/injection, schedule: Q01DX001 (ip), vehicle: other 92 % of control | dose: 200.0 mg/kg/injection, schedule: Q01DX001 (ip), vehicle: other 92 % of control | dose: 400.0 mg/kg/injection, schedule: Q01DX001 (ip), vehicle: other 100 % of control

NP1(N)=NP(N)(N)=NP(N)(N)=N1
inactive: [23] 90 % of control | [24] 93 % of control | dose: 400.0 mg/kg/injection, schedule: Q04DX002 (ip), vehicle: saline 97 % of control

O=C(O)CCc1nc2ccccc2[nH]1
inactive: dose: 75.0 mg/kg/injection, schedule: Q01DX009 (ip), vehicle: Klucel (hydroxypropylcellulose) (HPC) 107 % of control | dose: 150.0 mg/kg/injection, schedule: Q01DX009 (ip), vehicle: Klucel (hydroxypropylcellulose) (HPC) 100 % of control | dose: 300.0 mg/kg/injection, schedule: Q01DX009 (ip), vehicle: Klucel (hydroxypropylcellulose) (HPC) 104 % of control

CNC(=O)n1ncnc1N
inactive: [1] 94 % of control | [2] 96 % of control | [3] 97 % of control

CC1=C(N2CCCC2)CCCC1=O
inactive: [23] 112 % of control | [24] 107 % of control

CN(C)c1ccc(/C=C/c2cc[n+](C)cc2)cc1
inactive: dose: 8.0 mg/kg/injection, schedule: Q04DX003 (ip), vehicle: saline with Tween-80 100 % of control | dose: 16.0 mg/kg/injection, schedule: Q04DX003 (ip), vehicle: saline with Tween-80 95 % of control

CCOc1ccc(NC(=O)Nc2ccccc2Cl)cc1
inactive: dose: 6.0 mg/kg/injection, schedule: Q01DX009 (ip), vehicle: Klucel (hydroxypropylcellulose) (HPC) 93 % of control | dose: 12.0 mg/kg/injection, schedule: Q01DX009 (ip), vehicle: Klucel (hydroxypropylcellulose) (HPC) 88 % of control | dose: 25.0 mg/kg/injection, schedule: Q01DX009 (ip), vehicle: Klucel (hydroxypropylcellulose) (HPC) 97 % of control | dose: 25.0 mg/kg/injection, schedule: Q01DX009 (ip), vehicle: gum acacia 89 % of control | dose: 200.0 mg/kg/injection, schedule: Q01DX009 (ip), vehicle: gum acacia 91 % of control | dose: 200.0 mg/kg/injection, schedule: Q04DX003 (ip), vehicle: gum acacia 92 % of control | dose: 400.0 mg/kg/injection, schedule: Q04DX003 (ip), vehicle: gum acacia 90 % of control

COc1ccccc1OCCOCCNC1C(C)CCCC1(C)C (stereo not drawn)
inactive: dose: 12.5 mg/kg/injection, schedule: Q04DX003 (ip), vehicle: Klucel (hydroxypropylcellulose) (HPC) 100 % of control | dose: 25.0 mg/kg/injection, schedule: Q04DX003 (ip), vehicle: Klucel (hydroxypropylcellulose) (HPC) 94 % of control | [6] 93 % of control | [9] 90 % of control

CCOC(=O)CC(NC(=O)N(CCCl)CCCl)C(=O)OCC (stereo not drawn)
inactive: dose: 62.5 mg/kg/injection, schedule: Q01DX Z (ip), vehicle: water 101 % of control | dose: 125.0 mg/kg/injection, schedule: Q01DX Z (ip), vehicle: water 108 % of control | dose: 250.0 mg/kg/injection, schedule: Q01DX Z (ip), vehicle: water 111 % of control

COc1ccccc1-n1c(O)c(N=Nc2ccc(Br)cc2)c(=O)n(-c2ccc(C)cc2)c1=S
inactive: [15] 109 % of control | [17] 102 % of control | [19] 102 % of control
